{"source": "patent US20110152214A1", "about": "“SILK POLYMER-BASED ADENOSINE RELEASE: THERAPEUTIC POTENTIAL FOR EPILEPSY” (TRUSTEES OF TUFTS COLLEGE, priority 2008, published 2011)", "key": {"[1]": {"test_system": "fully kindled rats", "assay": "Experiment 1: suppression of kindled seizures by polymer-based adenosine release", "format": "in vivo, rat", "from_the_text": "Experiment 1: Four days after surgery, the animals were stimulated unilaterally six times every second or third day with a Grass S-88 stimulator (1-ms square-wave pulses of 5 V at 50-Hz frequency for 10 s, 30-min interval between stimulations; these stimulations corresponded to about 350 μA, whereas the afterdischarge thresholds before kindling were in the range of 115 μA). Behavioral seizures were scored according to the scale of Racine (Racine, 1978). The electroencephalogram (EEG) was recorded for periods of 1 min before and 5 min after application of each stimulating pulse using a Nervus EEG monitoring system. Stimulations on each day were discontinued whenever a stage 5 seizure on that day was reached. Eventually, all animals reacted with a stage 5 seizure at the first (and then only) daily stimulation. After three stage 5 seizures elicited by the first stimulation on three subsequent kindling-days animals were considered to be fully kindled (i.e. reproducibility of stage 5 seizure activity after stimulation). […] Only animals that fulfilled these stringent kindling criteria were used for the subsequent experiments. Polymers were implanted into these fully kindled animals. Implant recipients received one test-stimulation each on day 4, 6, 10, 14, 18, and 21 after polymer implantation and were then subjected to histological analysis. […]"}, "[2]": {"test_system": "rat kindling model", "assay": "Experiment 2a: kindling on days 4, 6, 8, 11 after implantation, then DPCPX test", "format": "in vivo", "settings": "1 mg/kg, i.p., 30 min prior to stimulation, day twelve", "from_the_text": "Experiment 2: Polymer implantation (see below) was combined with electrode implantation (see above) in the same surgery. Experiment 2a: Kindling was initiated four days after polymer implantation with the animals receiving 6 kindling stimulations (1-ms square-wave pulses of 5 V at 50-Hz frequency for 10 sec, 30-min interval between stimulations) each on day 4, 6, 8, and 11 after implantation; this amounted to a total of 24 stimulations. […] Twenty-four (24) hr after this drug test all animals were stimulated again once before being sacrificed for histological analysis. Experiment 2b (FIG. 3): Kindling was initiated four days after polymer implantation with the animals receiving six kindling stimulations each on days 4, 5, 6, 7, and 8, after implantation; this amounted to a total of 30 stimulations. In these incompletely kindled adenosine-implant recipients further stimulations were suspended until adenosine release from the polymers had expired (from day eighteen onwards). Kindling stimulations were resumed on days 18, 19, 20, 21, and 22 after implantation (6 stimulations/day; total of 30 additional stimulations). Afterwards the animals were sacrificed for histological analysis. […]"}, "[3]": {"test_system": "fully kindled rats", "settings": "Boison et al. 2002; Güttinger et al. 2005; Huber et al. 2001; cited from earlier work"}, "[4]": {"test_system": "rat kindling model", "format": "in vivo", "method": "Anesthesia was induced with 3% isoflurane, 67% N2O, 30% O2 and maintained with 1.5% isoflurane, 68.5% N2O, 30% O2, while rats (N=22) were placed in a Kopf stereotactic frame. […]\nFour days after surgery, the animals were stimulated unilaterally six times every second or third day with a Grass S-88 stimulator (1-ms square-wave pulses of 5V at 50-Hz frequency for 10 sec; 30 min-interval between stimulations). Behavioral seizures were scored according to the scale of Racine (3(2) Neurosurg. 234-52 (1978)). […] The electroencephalogram (EEG) was recorded for periods of 1 min before and 5 min after application of each stimulating pulse using a Nervus EEG monitoring system. […]\nSeizure scores were determined after each stimulation according to the scale of Racine (1978). […]"}, "[5]": {"test_system": "rat kindling model", "settings": "Silver et al., 1991; cited from earlier work"}}, "note": "Entries after “also recorded” stand apart in the source; their conditions may differ."}
{"smiles": "OC[C@H]1O[C@@H](n2cnc3c(NC4CCCC4)nc(Cl)nc32)[C@H](O)[C@@H]1O", "note": "[CCPA, 2-chloro-N(6)-cyclopentyladenosine]", "values": [{"measurement": "seizure response to test stimulation", "setting": "[1]; 3 mg/kg i.p., 30 min prior to test stimulation, before polymer implantation", "result": "complete seizure suppression"}]}
{"smiles": "CCCn1c(=O)c2[nH]c(C3CCCC3)nc2n(CCC)c1=O", "note": "[DPCPX, 8-cyclopentyl-1,3-dipropylxanthine]", "values": [{"measurement": "effect of DPCPX on seizure score in adenosine-releasing implant recipients", "setting": "[2]", "result": "failed to elicit control group-like seizures; also recorded: did not increase the seizure score; also recorded: failed to increase seizure scores"}, {"measurement": "seizures elicited by DPCPX paired with kindling stimulations", "setting": "[3]", "result": "readily elicits stage 5 seizures"}, {"measurement": "seizure stage elicited in an ADO-polymer treated rat after DPCPX", "setting": "[1]; 1 mg/kg, i.p., 30 min after injection, day three", "result": 5}]}
{"smiles": "Nc1ncnc2c1ncn2[C@@H]1O[C@H](CO)[C@@H](O)[C@H]1O", "note": "[adenosine]", "values": [{"measurement": "doses sufficient to suppress kindling", "setting": "[4]; focal infrahippocampal release, from Table 3", "result": "around 400 ng adenosine/day"}, {"measurement": "tolerability of high doses, gross behavioral changes", "setting": "[4]; rat, in vivo", "result": "well tolerated"}]}
{"smiles": "NC(=O)N1c2ccccc2C=Cc2ccccc21", "note": "[carbamazepine]", "values": [{"measurement": "effect on kindling development / antiepileptogenesis", "setting": "[5]", "result": "did not affect kindling development during the drug-phase"}]}
